Results: patent US9206164B2, “Pyrazole compounds as CRTH2 antagonists” (Boehringer Ingelheim International GmbH, priority 2011, dated 2015)

These compounds were tested against human CRTH2 receptor (Homo sapiens (Human), UniProt Q9Y5Y4) (assay: CRTH2 receptor radioligand binding assay (SPA, [3H]-PGD2 displacement)). Details: antagonistic activities of selected compounds.
human CRTH2 receptor, sequence (Q9Y5Y4 whole entry): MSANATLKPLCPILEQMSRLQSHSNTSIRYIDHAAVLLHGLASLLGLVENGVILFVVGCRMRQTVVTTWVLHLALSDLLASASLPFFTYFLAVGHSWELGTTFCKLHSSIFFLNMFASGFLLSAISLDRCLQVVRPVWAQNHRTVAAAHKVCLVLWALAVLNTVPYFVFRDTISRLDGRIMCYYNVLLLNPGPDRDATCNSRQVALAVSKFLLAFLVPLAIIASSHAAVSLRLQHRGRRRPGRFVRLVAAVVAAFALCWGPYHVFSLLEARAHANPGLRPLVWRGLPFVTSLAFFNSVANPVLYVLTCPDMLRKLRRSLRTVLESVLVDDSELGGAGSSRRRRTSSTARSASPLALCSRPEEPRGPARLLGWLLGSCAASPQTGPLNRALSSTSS
Experimental: The binding of CRTH2 antagonists is determined using membranes prepared from Chinese hamster ovary cells (CHO-K1 cells) transfected with the human CRTH2 receptor (CHO-K1-hCRTH2 cells, Perkin Elmer, Cat No ES-561-C). To produce cell membranes the CHO-K1-hCRTH2 cells are cultured in suspension in CHO SFMII medium supplemented with 400 μg/ml G418. The cells are harvested by centrifugation at 300 g for 10 min at room temperature. The cell pellet is resuspended in Phosphate Buffer Saline (PBS) including a protease inhibitor mix (Complete, Roche) and adjusted to a concentration of 10E7 cells/ml. The CHO-K1-hCRTH2 cells are disrupted by nitrogen […] to obtain the membrane preparation. Cell debris is removed by centrifugation (500 g at 4° C., 30 min) and the supernatant is transferred into fresh tubes followed by a second centrifugation at 40000 g for 1 h at 4° C. to sediment the membranes. The membranes are suspended in SPA incubation buffer (50 mM Tris HCl, 10 mM MgCl2, 150 mM NaCl, 1 mM EDTA, pH 7.4) without bovine serum albumin, homogenized by passing through a single use needle (Terumo, 23G×1″), and stored in aliquots at −80° C.
The CRTH2 receptor binding assay is performed in a scintillation proximity assay (SPA) format with the radioligand [^3H]-PGD2 (Perkin Elmer, NET616000MC). CHO-K1-hCRTH2 cell membranes are again homogenized by passing through a single use needle (Terumo, 23G×1″) and diluted in SPA incubation buffer in suitable concentrations (0.5-10 μg protein/well). The SPA assay is set up in 96 well microtiter plates (Perkin Elmer, CatNo. 6005040) in SPA incubation buffer with a final volume of 200 μl per well and final concentration of 50 mM Tris-HCl, 10 mM MgCl2, 150 mM NaCl, 1 mM EDTA pH 7.4, 0.1% bovine serum albumin). The SPA assay mixture contains 60 μl of the membrane suspension, 80 μl of Wheat Germ Agglutinin coated PVT beads (GE Healthcare, RPNQ-0001, 0.3 mg/well), 40 μl of [^3H]-PGD2 diluted in SPA buffer to a final concentration of 1 nM (50 000 dpm) and 20 μl of the test compound (dissolved in dimethylsulfoxid). The SPA assay mixture is incubated for 3 h at room temperature. Bound radioactivity is determined with a scintillation counter (Micro Beta Trilux, Wallac).
The binding of [^3H]-PGD2 to CHO-K1-hCRTH2 cell membranes is determined in the absence (total binding, Bo) and presence (non-specific binding, NSB) of unlabelled PGD2 (1 μM, Cayman Chemical, Cat No 12010) or a reference CRTH2 antagonist (10 μM CAY10471, Cayman Chemical, Cat No 10006735).
Determination of the affinity of a test compound is calculated by subtraction of the non-specific binding (NSB) from the total binding (Bo) or the binding in the presence of the test compound (B) at a given compound concentration. The NSB value is set to 100% inhibition. The Bo−NSB value is set to 0% inhibition.
% inhibition values were obtained at a defined compound concentration, e.g. at 1 μM, % inhibition of the test compound was calculated by the formula 100−((B−NSB)*100/(Bo−NSB)). % inhibition values above 100% are founded by assay variance.
Cc1nn(Cc2ccc(-c3cc4ccc(Cl)cc4[nH]3)cc2)c(C)c1CC(=O)O [Compound 1, (1-[4-(6-Chloro-1H-indol-2-yl)-benzyl]-3,5-dimethyl-1H-pyrazol-4-yl)-acetic Acid] was tested, and the Ki was 0.8 nM. Compound Cc1nn(Cc2ccc(-c3cc4cc(C(F)(F)F)ccc4[nH]3)cc2)c(C)c1CC(=O)O [Compound 2] has a Ki of 11.3 nM. Work on Cc1nn(Cc2ccc(-c3cc4cc(Cl)ccc4[nH]3)cc2)c(C)c1CC(=O)O [Compound 3] yielded a Ki of 4.2 nM. Cc1nn(Cc2ccc(-c3cc4ccc(C(F)(F)F)cc4[nH]3)cc2)c(C)c1CC(=O)O [Compound 4] was tested, and the Ki was 0.3 nM. Compound Cc1nn(Cc2ccc(-c3cc4ccc(C(F)(F)F)cc4[nH]3)cc2F)c(C)c1CC(=O)O [Compound 5] has a Ki of 0.5 nM. Cc1nn(Cc2ccc(-c3cc4ccc(Cl)cc4[nH]3)cc2F)c(C)c1CC(=O)O [Compound 6] showed a Ki of 0.8 nM. Work on Cc1nn(Cc2cccc(-c3cc4ccc(Cl)cc4[nH]3)c2)c(C)c1CC(=O)O [Compound 7] yielded a Ki of 397 nM. Cc1nn(Cc2ccccc2-c2cc3ccc(Cl)cc3[nH]2)c(C)c1CC(=O)O [Compound 8] was tested, and the Ki was 394 nM. Compound Cc1nn(Cc2cccc(-c3cc4ccc(C(F)(F)F)cc4[nH]3)c2)c(C)c1CC(=O)O [Compound 9] has a Ki of 97.8 nM. For Cc1nn(Cc2ccc(-c3cc4ncccc4[nH]3)cc2)c(C)c1CC(=O)O [Compound 10], the Ki was 308 nM. Compound Cc1nn(Cc2ccc(-c3cc4ccc(C(F)(F)F)cc4[nH]3)cc2C(F)(F)F)c(C)c1CC(=O)O [Compound 11] has a Ki of 0.7 nM. Cc1nn(Cc2ccc(-c3cc4cccnc4[nH]3)cc2F)c(C)c1CC(=O)O [Compound 12] was tested, and the Ki was 155 nM. Work on Cc1nn(Cc2ccc(-c3nc4ccccc4[nH]3)cc2)c(C)c1CC(=O)O [Compound 14] yielded a Ki of 13.4 nM. CCc1nn(Cc2ccc(-c3nc4ccccc4[nH]3)cc2)c(CC)c1CC(=O)O [Compound 15] gave a Ki of 2.3 nM. CCc1nn(Cc2ccc(-c3nc4cc(Cl)c(Cl)cc4[nH]3)cc2)c(CC)c1CC(=O)O [Compound 16] gave a Ki of 0.2 nM. Compound Cc1nn(Cc2ccc(-c3nc4cc(Cl)c(Cl)cc4[nH]3)cc2)c(C)c1CC(=O)O [Compound 17] has a Ki of 1.2 nM. With Cc1nn(Cc2ccc(-c3nc4cc5ccccc5cc4[nH]3)cc2)c(C)c1CC(=O)O [Compound 18] the Ki was 0.8 nM. In the case of CCc1nn(Cc2ccc(-c3nc4cc5ccccc5cc4[nH]3)cc2)c(CC)c1CC(=O)O [Compound 19], the Ki is reported as 0.1 nM. Compound CCc1nn(Cc2ccc(-c3nc4ccc(C(F)(F)F)cc4[nH]3)cc2)c(CC)c1CC(=O)O [Compound 20] has a Ki of 0.2 nM. With Cc1nn(Cc2ccc(-c3nc4ccc(C(F)(F)F)cc4[nH]3)cc2)c(C)c1CC(=O)O [Compound 21] the Ki was 1.4 nM. Cc1cc(Cn2nc(C)c(CC(=O)O)c2C)ccc1-c1nc2ccccc2[nH]1 [Compound 22] gave a Ki of 21.9 nM. Cc1nn(Cc2ccc(-c3nc4cc(Cl)ccc4[nH]3)cc2)c(C)c1CC(=O)O [Compound 24] was tested, and the Ki was 1.9 nM. In the case of Cc1nn(Cc2ccc(-c3nc4cc(Cl)ccc4n3C)cc2)c(C)c1CC(=O)O [Compound 25], the Ki is reported as 176 nM. CCc1nn(Cc2ccc(-c3nc4cncc(C)c4[nH]3)cc2)c(CC)c1CC(=O)O [Compound 26] showed a Ki of 22.6 nM. Work on CCc1nn(Cc2ccc(-c3nc4cc(F)c(Cl)cc4[nH]3)cc2)c(CC)c1CC(=O)O [Compound 27] yielded a Ki of 0.4 nM. Compound Cc1nn(Cc2ccc(-c3nc4c(C)cncc4[nH]3)cc2)c(C)c1CC(=O)O [Compound 29] has a Ki of 646 nM. In the case of Cc1nn(Cc2ccc(-c3nc4ccccc4n3C)cc2)c(C)c1CC(=O)O [Compound 30], the Ki is reported as 753 nM. Cc1nn(Cc2ccc(-c3nc4cccnc4[nH]3)cc2)c(C)c1CC(=O)O [Compound 31] gave a Ki of 118 nM. Cc1nn(Cc2ccc(-c3nc4cc(Br)ccc4[nH]3)cc2)c(C)c1CC(=O)O [Compound 32] was tested, and the Ki was 1.2 nM. Work on Cc1nn(Cc2ccc(-c3nc4cc(C(C)(C)C)ccc4[nH]3)cc2)c(C)c1CC(=O)O [Compound 33] yielded a Ki of 0.5 nM. Work on CCc1nn(Cc2ccc(-c3nc4cc(C#N)ccc4[nH]3)cc2)c(CC)c1CC(=O)O [Compound 34] yielded a Ki of 3.7 nM. CCc1nn(Cc2ccc(-c3nc4cc(Cl)c(Cl)cc4n3C)cc2)c(CC)c1CC(=O)O [Compound 35] was tested, and the Ki was 66.7 nM. Work on Cc1nn(Cc2ccc(-c3nc4c(F)cc(F)cc4[nH]3)cc2)c(C)c1CC(=O)O [Compound 36] yielded a Ki of 5.6 nM. CCc1nn(Cc2ccc(-c3nc4cncnc4[nH]3)cc2)c(CC)c1CC(=O)O [Compound 37] was tested, and the Ki was 85.4 nM. With Cc1nn(Cc2ccc(-c3nc4cc(Br)cnc4[nH]3)cc2)c(C)c1CC(=O)O [Compound 38] the Ki was 7.4 nM. Compound CCc1nn(Cc2ccc(-c3nc4cc(OC)ccc4[nH]3)cc2)c(CC)c1CC(=O)O [Compound 39] has a Ki of 1.3 nM. Cc1nn(Cc2ccc(-c3nc4cc(Cl)cnc4[nH]3)cc2)c(C)c1CC(=O)O [Compound 40] was tested, and the Ki was 12.4 nM. Cc1ccc2[nH]c(-c3ccc(Cn4nc(C)c(CC(=O)O)c4C)cc3)nc2c1 [Compound 41] was tested, and the Ki was 4.8 nM. In the case of CCc1nn(Cc2ccc(-c3nc4cc(Cl)cnc4[nH]3)cc2)c(CC)c1CC(=O)O [Compound 42], the Ki is reported as 1.7 nM. For CCc1nn(Cc2ccc(-c3nc4c(F)c(F)ccc4[nH]3)cc2)c(CC)c1CC(=O)O [Compound 43], the Ki was 1.1 nM. With COc1ccc2[nH]c(-c3ccc(Cn4nc(C)c(CC(=O)O)c4C)cc3)nc2n1 [Compound 44] the Ki was 9.6 nM. In the case of CCc1nn(Cc2ccc(-c3nc4cc(Cl)ccc4[nH]3)cc2)c(CC)c1CC(=O)O [Compound 45], the Ki is reported as 0.3 nM. CCc1nn(Cc2ccc(-c3nc4ccccc4n3C)cc2)c(CC)c1CC(=O)O [Compound 46] gave a Ki of 340 nM. Cc1nn(Cc2ccc(-c3nc4c(F)c(F)ccc4[nH]3)cc2)c(C)c1CC(=O)O [Compound 47] gave a Ki of 4.9 nM. CCc1nn(Cc2ccc(-c3nc4cccnc4[nH]3)cc2)c(CC)c1CC(=O)O [Compound 48] gave a Ki of 12.9 nM. Compound CCc1nn(Cc2ccc(-c3nc4c(F)cc(F)cc4[nH]3)cc2)c(CC)c1CC(=O)O [Compound 50] has a Ki of 1.1 nM. CCc1nn(Cc2ccc(-c3nc4c(C)cccc4[nH]3)cc2)c(CC)c1CC(=O)O [Compound 51] was tested, and the Ki was 2.2 nM. Cc1nn(Cc2ccc(-c3nc4c(F)cccc4[nH]3)cc2)c(C)c1CC(=O)O [Compound 52] gave a Ki of 8.7 nM. Compound Cc1nn(Cc2ccc(-c3nc4cc(F)c(Cl)cc4[nH]3)cc2)c(C)c1CC(=O)O [Compound 53] has a Ki of 2.3 nM. Compound Cc1cc2nc(-c3ccc(Cn4nc(C)c(CC(=O)O)c4C)cc3)[nH]c2cc1Cl [Compound 54] has a Ki of 1.1 nM. For CCc1nn(Cc2ccc(-c3nc4cc(C)c(Cl)cc4[nH]3)cc2)c(CC)c1CC(=O)O [Compound 55], the Ki was 0.5 nM. Compound CCc1nn(Cc2ccc(-c3nc4cc(F)ccc4[nH]3)cc2)c(CC)c1CC(=O)O [Compound 56] has a Ki of 1.3 nM. Compound CCc1nn(Cc2ccc(-c3nc4cc(Br)cnc4[nH]3)cc2)c(CC)c1CC(=O)O [Compound 57] has a Ki of 1.5 nM. CCc1nn(Cc2ccc(-c3nc4cc(C)ccc4[nH]3)cc2)c(CC)c1CC(=O)O [Compound 58] gave a Ki of 1.3 nM. COc1ccc2[nH]c(-c3ccc(Cn4nc(C)c(CC(=O)O)c4C)cc3)nc2c1 [Compound 59] gave a Ki of 7.6 nM. Cc1nn(Cc2ccc(-c3nc4ccncc4[nH]3)cc2)c(C)c1CC(=O)O [Compound 60] gave a Ki of 299 nM. Compound CCc1nn(Cc2ccc(-c3nc4ccncc4[nH]3)cc2)c(CC)c1CC(=O)O [Compound 61] has a Ki of 56.4 nM. With Cc1nn(Cc2ccc(-c3nc4cc(C#N)ccc4[nH]3)cc2)c(C)c1CC(=O)O [Compound 62] the Ki was 18.4 nM. In the case of Cc1nn(Cc2ccc(-c3nc4c(C)cccc4[nH]3)cc2)c(C)c1CC(=O)O [Compound 63], the Ki is reported as 10 nM. CCc1nn(Cc2ccc(-c3nc4nc(OC)ccc4[nH]3)cc2)c(CC)c1CC(=O)O [Compound 64] gave a Ki of 3.1 nM. CCc1nn(Cc2ccc(-c3nc4c(Cl)cc(Cl)cc4[nH]3)cc2)c(CC)c1CC(=O)O [Compound 65] showed a Ki of 0.4 nM. With Cc1nn(Cc2ccc(-c3nc4c(Cl)cc(Cl)cc4[nH]3)cc2)c(C)c1CC(=O)O [Compound 66] the Ki was 1 nM.
